# Test results published in publication PMC11215771 (Journal of Medicinal Chemistry, 2024).
# Assays:
# [1] = biological target: T1, endogenous BACE1 (Mus musculus, UniProt P56818); test: Staining of endogenous BACE1 in brain slices; details: 250 nM probe, BACE1+/+ vs BACE1–/– mice
# T1 construct: from tissue; host or cells: mouse brain cryosections (hippocampus, cerebellum), C57BL/6J background, P16
# Excerpt: Areas with high expression such as the hippocampal MFB[38] or cerebellar Purkinje cells[39],[40] are readily distinguished. However, all primary anti-BACE1 antibodies tested in our lab produced a significant background in samples of BACE1 knockout mice.[20],[23] […] We wondered if our new Alexa-C3 compounds could outperform existing probes in endogenous tissue. […] Close to the hilus, we depicted the MFB additionally at higher magnification (Figure 4B). […] From this set of data and from previous experiments using anti-BACE1 antibodies and SiR-BACE1 we calculated the ratio of the signal in the hilar region to the signal in the molecular layer (Figure 4C), since the molecular layer (red box in Figure 4C) is more affected by background fluorescence due to the relatively low BACE1 expression level.
# (A) Images of the hippocampus depict the mossy fiber bundle (MFB) with high BACE1 expression with the intervening CA3 pyramidal cell layer (CA3) and proximal dentate gyrus (DG). […] The scale bar represents 200 μm. […]
# For quantification of hippocampal BACE1 staining, mean intensities of the mossy fiber bundle were divided by the mean intensity of the molecular layer of the dentate gyrus. Mean intensities were calculated from rectangular regions of interest. In addition, analysis was performed on images of hippocampal BACE1 labeling with SiR-BACE1 recorded previously.[31]
# [2] = biological target: T2, recombinant BACE1 extracellular domain (Homo sapiens, UniProt P56817); test: FRET-based BACE1 inhibition (BACE1-activity FRET) assay; assay type: biochemical
# T2 construct: purchased Thermo Fisher Scientific P2985
# T2 sequence (P56817 46-457 limits assumed): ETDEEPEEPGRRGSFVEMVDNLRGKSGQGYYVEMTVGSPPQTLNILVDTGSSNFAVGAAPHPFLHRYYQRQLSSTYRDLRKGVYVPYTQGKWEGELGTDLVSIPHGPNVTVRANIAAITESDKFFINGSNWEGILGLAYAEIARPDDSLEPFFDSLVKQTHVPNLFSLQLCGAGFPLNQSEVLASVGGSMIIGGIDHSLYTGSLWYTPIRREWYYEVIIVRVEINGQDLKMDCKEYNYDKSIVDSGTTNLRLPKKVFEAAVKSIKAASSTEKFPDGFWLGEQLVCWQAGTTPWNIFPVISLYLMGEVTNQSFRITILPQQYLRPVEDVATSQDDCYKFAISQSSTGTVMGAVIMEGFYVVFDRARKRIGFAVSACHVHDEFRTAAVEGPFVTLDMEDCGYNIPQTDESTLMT
# Protocol: In addition, we performed a fluorescence resonance energy transfer (FRET)-based BACE1 inhibition assay using the recombinant BACE1 extracellular domain and a BACE1 substrate coupled to a donor fluorophore, which is unquenched […] to the activity of BACE1. […] (Figure 1F).
# Protease activity was determined using a FRET-based assay with recombinant BACE1 protein (Thermo Fisher Scientific; P2985). BACE1 inhibition was determined in end-points assays according to the manufacturer’s protocol except using a reduced volume of 12 μL in 384-well plates (Greiner, 788896). […] Fluorescence intensities were quantified with an infinite 200pro reader (Tecan) using top-reading mode. Data points were approximated using a logistic fit to determine half-inhibitory concentrations (pIC50).
# [3] = Fluorescence spectroscopy, sensitivity to BSA and Expi293F cells; details: mock Expi293F cells in fluorobrite vs PBS alone
# Protocol: Emission and excitation spectra of all compounds were determined at a concentration of 33 nM in phosphate buffered saline (PBS) using an infinite 200pro (Tecan) with a resolution of 2 nm. […] For sensitivity assessment, we used PBS, PBS + BSA (0.05%), and Expi293F cells in fluorobrite (2 × 10^6 cells/mL).
# T1 sequence (P56818 46-501): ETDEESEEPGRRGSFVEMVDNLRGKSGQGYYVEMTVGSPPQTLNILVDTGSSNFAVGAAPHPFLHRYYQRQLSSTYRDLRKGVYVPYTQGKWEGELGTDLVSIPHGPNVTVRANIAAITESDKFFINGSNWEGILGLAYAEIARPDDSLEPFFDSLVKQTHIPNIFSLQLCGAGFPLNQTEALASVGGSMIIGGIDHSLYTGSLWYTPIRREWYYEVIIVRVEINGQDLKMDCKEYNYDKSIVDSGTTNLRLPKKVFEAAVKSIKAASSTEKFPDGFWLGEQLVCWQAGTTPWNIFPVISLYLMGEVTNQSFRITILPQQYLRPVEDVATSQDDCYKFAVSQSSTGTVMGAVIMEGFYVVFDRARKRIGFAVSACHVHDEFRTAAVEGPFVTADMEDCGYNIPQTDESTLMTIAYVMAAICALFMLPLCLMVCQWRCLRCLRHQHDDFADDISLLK
labeling of endogenous BACE1 in brain slices [1],increase of potency of the pIC50 in a cell-free assay vs parent C3 ([2]; compared with unconjugated C3) [fold],"IC50 ([2]; logistic fit, n = 3 for each compound, read-out: pIC50 (negative logarithm of the half-inhibitory concentration) (converted)) [nM]",increase of fluorescent output in presence of Expi293F cells [3],impairment of affinity to the catalytic center by dye attachment ([2]; compared with unconjugated C3) [fold],"pIC50 (negative logarithm of the half-inhibitory concentration) ([2]; logistic fit, n = 3 for each compound)",SMILES
labeled BACE1 in a typical pattern,10,1.86,+25%,–,–,"C[C@@H](NC(=O)c1cc(C(=O)N[C@@H](Cc2ccccc2)[C@H](O)CNC2CC2)cc(N(C)S(=O)(=O)CCCNC(=O)c2ccc(C(=O)O)c(-c3c4ccc(=N)c(S(=O)(=O)O)c-4oc4c(S(=O)(=O)O)c(N)ccc34)c2)c1)c1ccccc1 [2-(6-Amino-3-iminio-4,5-disulfo-3H-xanthen-9-yl)-4-((3-(N-(3-(((2S,3R)-4-(cyclopropylamino)-3-hydroxy-1-phenylbutan-2-yl)carbamoyl)-5-(((R)-1-phenylethyl)carbamoyl)phenyl)-N-methylsulfamoyl)propyl)carbamoyl)benzoate]"
unsuccessful,–,–,+8%,10,6.53 (95% CI: 6.05–7.05),C[C@@H](NC(=O)c1cc(C(=O)N[C@@H](Cc2ccccc2)[C@H](O)CNC2CC2)cc(N(C)S(=O)(=O)CCCNC(=O)CCCCCC2(C)C(/C=C/C=C/C=C3/N(CCCS(=O)(=O)O)c4ccc(S(=O)(=O)O)cc4C3(C)C)=[N+](CCCS(=O)(=O)[O-])c3ccc(S(=O)(=O)O)cc32)c1)c1ccccc1 (some centres unmarked)
